Molecules are shown by their SMILES. Like-named read-outs stand apart in the source and are kept apart here.

The series in a line: Pharmacokinetic study in nitroglycerin-induced migraine model rats (plasma, HPLC-MS/MS). Format: in vivo, rat. To be noted: for CL/F / MRT last / MRT inf / Vd/F / half-life: female, Sprague-Dawley, po; for CL/F: read-out: CL z/F (converted); for MRT last: read-out: MRT (0 − t); for MRT inf: read-out: MRT (0 − ∞); for Vd/F: read-out: V z/F; for half-life: read-out: t1/2z (converted); for clearance rate (CL z/F), administration-alone group higher than the coadministration group: single administration versus PI coadministration. Here is the method:
Healthy Sprague-Dawley (SD) female rats weighing 180 g ± 20 were provided by Hunan SJA Laboratory Animal Co., Ltd. (animal license number: SCXK (Xiang) 2016-0002). Rats underwent adaptive feeding for one week and were fasted for 12 h. Rats had open access to water throughout the study. For pharmacokinetic analysis, 18 SD rats were randomly divided into 3 groups and 0.4 mL of nitroglycerin (dosage: 10 mg/kg) was injected into the forehead to establish the migraine model. […] For blood sampling, 0.3 mL of blood was taken from the rat orbit prior to drug administration and 0, 5, 15, 30, and 45 min and 1, 2, 4, 6, 8, 10, 12, and 24 h after administration. These blood samples were collected into EP tubes coated with heparin sodium. After centrifugation at 4000 rmp for 10 min, supernatants were collected and stored at −80°C.
The mixture was vortexed for 3 min and centrifuged for 10 min at 13000 rpm. 200 μL of supernatants was collected for LC/MS analysis. For GAS and PA assessments, 50 μL of geniposide (IS: 350 ng/mL) and 250 μL of methanol were added to 50 μL of the plasma sample. The mixture was vortexed for 3 min and centrifuged for 10 min at 13000 rpm. 200 μL of supernatants was collected into centrifuge tubes, dried in nitrogen, and dissolved in 200 μL of 5% acetonitrile solution (95 : 5, v : v).
For pharmacokinetic studies, the AB Sciex Triple Quad™ 4500 was used for detection. […] A flow rate of 0.5 mL/min was used with an injection volume of 2 μL. The gradient elution was 0.0–1.2 min, 5% B; 1.2–6.0 min, 5–35% B; 6.0–8.5 min, 35–95% B; 8.5–9.0 min, 5% B; and 9.0–10.0 min, 5% B. Under mass spectrometry conditions, the ESI positive ion mode with multiple reaction monitoring (MRM) was used for detection using the following parameters: ion source temperature = 550°C; ion spray voltage = 4500 V; curtain gas (nitrogen) = 25 psi; atomizing gas (GS 1) = 50 psi; auxiliary gas (GS 2) = 50 psi. […] The IS was pyrrolidone hydrochloride, m/z 357.1–134.1 (DP: 85 V; CE: 35 eV). For GAS and PA, the column temperature was controlled at 40°C; phase A was 0.1% aqueous formic acid, and phase B was acetonitrile; flow rate was 0.5 mL/min; injection volume was 2 μL. The gradient elution was as follows: 0.0–1.2 min, 5% B; 1.2–8.0 min, 5–95% B; 8.0–9.0 min, 95–5% B; 9.0–10.0 min, 5% B; […]. For mass spectrometry, the ESI negative ion mode with MRM mode detection was employed. Mass spectrometry parameters were as follows: ion source temperature = 550°C; ion spray voltage = −4500 V; curtain gas (nitrogen) = 25 psi; atomizing gas (GS 1) = 50 psi; auxiliary gas (GS 2) = 50 psi. Ion pairs were as follows: GAS, m/z 331.1–123.0 (DP: −60 V; CE: −20 V); PA, m/z 995.1–726.9 (DP: −165 V; CE: −39 V). The IS was geniposide, m/z 433.0–225 (DP: −165 V; CE: −20 eV).
DAS 3.2.8 software was used to analyze the plasma concentrations in the different groups across all experimental time points. Time-concentration curves were drawn using Sigma Plot 10.0. For lipidomics, raw data were converted to the common (mzData) format using Agilent MassHunter Qualitative Analysis B.08.00 software (Agilent Technologies, USA). In the R software platform, the XCMS program was used to assess peak identification times, retention time correction, and automatic integration pretreatments. Data were subjected to IS and weight normalization. Visualization matrices containing the sample name, m/z-RT pair, and peak area were obtained. […] After editing, data matrices were imported into SIMCA-P 13.0 (Umetrics, Umea, Sweden), mean-centered, and scaled to Pareto variance. Multivariate analysis was then conducted.

[1] abbreviates: Combine: PI coadministered (ISO 40 mg/kg, PA 372.4 mg/kg) intragastric, migraine model rats, plasma.
The mark [2] stands for this setting: PI coadministration versus single administration, migraine model rats.
The mark [3] stands for this setting: Single: PA alone 372.4 mg/kg intragastric, migraine model rats, plasma.
Where [4] appears, read: rat, in vivo, Single: PA alone 372.4 mg/kg intragastric, migraine model rats, plasma.
Where [5] appears, read: Single: ISO alone 40 mg/kg intragastric, migraine model rats, plasma.

On to `OCc1ccc(O[C@@H]2O[C@H](CO)[C@@H](O)[C@H](O)[C@H]2O)cc1` [GAS, gastrodin], for which, under setting [1], the “AUC (0 − t)” value worked out at 12757.67 μg/L ∗ h, the “AUC (0 − ∞)” value is on record as 13028.09 μg/L ∗ h, the C-max stood at 3853.50 µg/L and the T-max came to 1.08 h. Further, under setting [2], the “AUC, coadministration higher than the administration-alone group” value turned out to be 1.31 fold; the “MRT, coadministration higher than the single-administration group” value was found to be 1.84 fold; the “half-life (t1/2z), coadministration higher than the administration-alone group” value (“half-life (t1/2z)” for short) is on record as 2.79 fold. Under setting [3], the “AUC (0 − t)” value is given as 9934.28 μg/L ∗ h, the “AUC (0 − ∞)” value is on record as 9935.51 μg/L ∗ h, the C-max amounted to 4082.17 µg/L and the T-max is given as 0.83 h. In addition, under setting [4], the CL/F is 640 mL/min/kg, the MRT last was 2.14 h, the MRT inf came out at 2.15 h and the Vd/F was 56.6 L/kg. The half-life under setting [4] was 1.02 h.
For the molecule `CC[C@H]1CN2CC[C@@]3(C(=O)Nc4ccccc43)[C@@H]2C[C@@H]1/C(=C\OC)C(=O)OC` [ISO, isorhynchophylline], under setting [1], the “AUC (0 − t)” value is 1755.85 μg/L ∗ h, the “AUC (0 − ∞)” value is on record as 1768.51 μg/L ∗ h, the C-max amounted to 867.07 µg/L and the T-max was 0.58 h. Besides, under setting [2], the “AUC, coadministration higher than the administration-alone group” value was 1.31 fold and the “half-life (t1/2z)” value is 1.99 fold. Under setting [5], the “AUC (0 − t)” value is on record as 1340.01 μg/L ∗ h, the “AUC (0 − ∞)” value was 1340.09 μg/L ∗ h, the C-max was 645.28 µg/L and the T-max came to 0.54 h. Under “rat, in vivo, 40 mg/kg”, the CL/F is 1480 mL/min/kg, the MRT last was determined as 1.76 h, the MRT inf is 1.77 h and the Vd/F worked out at 242 L/kg. For the setting “rat, in vivo, 40 mg/kg”, the half-life is 1.9 h. In addition, the “clearance rate (CL z/F), administration-alone group higher than the coadministration group” value (migraine model rats) stood at 3.15 fold.
In the case of `O=C(CC(O)(CC(=O)OCc1ccc(O[C@@H]2O[C@H](CO)[C@@H](O)[C@H](O)[C@H]2O)cc1)C(=O)OCc1ccc(O[C@@H]2O[C@H](CO)[C@@H](O)[C@H](O)[C@H]2O)cc1)OCc1ccc(O[C@@H]2O[C@H](CO)[C@@H](O)[C@H](O)[C@H]2O)cc1` [PA, parishin A], for the setting “rat, in vivo”, the stability in plasma result is recorded as “unstable” and the stability in rats result is recorded as “unstable”.
Consider `CC[C@H]1CN2CC[C@]3(C(=O)Nc4ccccc43)[C@@H]2C[C@@H]1/C(=C\OC)C(=O)OC` [RHY, rhynchophylline], for which, under setting [1], the “AUC (0 − t)” value came out at 412.82 μg/L ∗ h, the “AUC (0 − ∞)” value was determined as 455.57 μg/L ∗ h, the C-max stood at 94.10 µg/L and the T-max is listed as 0.96 h. Moreover, under setting [2], the “AUC, coadministration higher than the administration-alone group” value was found to be 1.44 fold and the “half-life (t1/2z)” value was 3.46 fold. Besides, under setting [5], the “AUC (0 − t)” value is given as 313.95 μg/L ∗ h, the “AUC (0 − ∞)” value is 314.00 μg/L ∗ h, the C-max was determined as 88.35 µg/L and the T-max is 0.63 h. Further, under “rat, in vivo, 40 mg/kg”, the CL/F was 5530 mL/min/kg, the MRT last amounted to 3.21 h, the MRT inf was found to be 3.21 h and the Vd/F amounted to 663 L/kg. Where the note is “rat, in vivo, 40 mg/kg”, the half-life is 1.63 h. Moreover, for the setting “migraine model rats”, the “clearance rate (CL z/F), administration-alone group higher than the coadministration group” value is 3.16 fold.

For the origin of these results see paper PMC7362284, “Pharmacokinetic and Lipidomic Assessment of the In Vivo Effects of Parishin A-Isorhynchophylline in Rat Migraine Models” (Journal of Analytical Methods in Chemistry, 2020).
